In patent publication US20260325533A1, “CDK INHIBITOR COMPOUNDS” (ALEKSIA THERAPEUTICS, INC., priority 2023, published 2026):
Like-named read-outs stand apart in the source and are kept apart here.

What was measured:
Format in all cases: biochemical
[1] = molecular target: CDK2/CCNE1 (Homo sapiens, UniProt P24941); experiment: CDK2 homogeneous time-resolved fluorescence (HTRF) kinase assay; conditions: CDK2/CCNE
Procedure, shortened: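 TR-FRET read-out (665 nm, or 665/615 ratio) of Eu-antibody detection of phospho-4E-BP1 (Thr37/46) ULight peptide. Enzyme 3 nM, ATP 1 mM, peptide 50 nM, 1% DMSO; 60 min reaction at 23 °C after 20 min compound preincubation. IC50 from 11-point half-log titrations, top typically 10 μM.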

[2] = molecular target: CDK4/CCND3 (Homo sapiens, UniProt P11802); experiment: CDK4 homogeneous time-resolved fluorescence (HTRF) kinase assay; conditions: CDK4/CCND
Sequence of CDK4/CCND3 (P11802 whole entry): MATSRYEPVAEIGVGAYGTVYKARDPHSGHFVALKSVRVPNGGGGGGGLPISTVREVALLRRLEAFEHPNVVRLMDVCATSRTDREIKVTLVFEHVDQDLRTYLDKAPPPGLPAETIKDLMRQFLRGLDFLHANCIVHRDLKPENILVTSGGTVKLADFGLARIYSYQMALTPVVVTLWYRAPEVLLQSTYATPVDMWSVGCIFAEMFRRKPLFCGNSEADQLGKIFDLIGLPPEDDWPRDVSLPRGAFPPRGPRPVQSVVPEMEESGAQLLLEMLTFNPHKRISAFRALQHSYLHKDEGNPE
Sequence of CDK4/CCND3 (P30281 whole entry partner): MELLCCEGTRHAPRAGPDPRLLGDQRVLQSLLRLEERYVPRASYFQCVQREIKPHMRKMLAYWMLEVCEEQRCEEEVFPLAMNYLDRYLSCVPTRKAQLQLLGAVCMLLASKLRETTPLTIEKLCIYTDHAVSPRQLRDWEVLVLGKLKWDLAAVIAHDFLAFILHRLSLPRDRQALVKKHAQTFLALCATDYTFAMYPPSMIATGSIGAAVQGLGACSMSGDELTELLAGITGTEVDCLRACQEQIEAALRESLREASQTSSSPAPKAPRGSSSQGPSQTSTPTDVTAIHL
Procedure, shortened: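 HTRF kinase assay, CDK4/CCND3 1.5 nM, ATP 1 mM, ULight-4E-BP1 peptide 50 nM, 23 °C, 60 min reaction after 20 min preincubation. Eu-anti-pThr37/46 antibody detection. 11-pt half-log curves from 10 μM → IC50.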

[3] = molecular target: CDK6/CCND1 (Homo sapiens, UniProt Q00534); experiment: CDK6 homogeneous time-resolved fluorescence (HTRF) kinase assay; conditions: CDK6/CCND
Sequence of CDK6/CCND1 (Q00534 whole entry): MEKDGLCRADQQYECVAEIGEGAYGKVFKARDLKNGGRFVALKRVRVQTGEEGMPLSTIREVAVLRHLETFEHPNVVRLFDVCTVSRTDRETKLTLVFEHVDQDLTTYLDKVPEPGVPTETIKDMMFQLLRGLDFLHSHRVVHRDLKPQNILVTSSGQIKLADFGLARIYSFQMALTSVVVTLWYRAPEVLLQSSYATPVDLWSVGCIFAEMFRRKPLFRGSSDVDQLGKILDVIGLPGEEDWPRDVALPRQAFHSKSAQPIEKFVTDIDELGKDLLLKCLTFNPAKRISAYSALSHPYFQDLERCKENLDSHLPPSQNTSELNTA
Sequence of CDK6/CCND1 (P24385 whole entry partner): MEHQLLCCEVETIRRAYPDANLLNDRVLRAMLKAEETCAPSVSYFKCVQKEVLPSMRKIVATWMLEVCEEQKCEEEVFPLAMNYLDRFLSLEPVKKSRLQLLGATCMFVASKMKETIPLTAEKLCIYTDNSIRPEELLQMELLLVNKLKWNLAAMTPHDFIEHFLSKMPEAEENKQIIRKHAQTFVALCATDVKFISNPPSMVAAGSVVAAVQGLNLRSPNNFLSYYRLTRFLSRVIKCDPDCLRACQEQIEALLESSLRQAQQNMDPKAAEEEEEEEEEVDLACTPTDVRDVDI
Procedure, shortened: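 Recombinant CDK6/CCND1 (1 nM final) was preincubated with compound for 20 min at 23 °C in HEPES buffer with MgCl2, EGTA, DTT and Tween 20. Kinase reaction then ran 60 min at 23 °C with 1 mM ATP and 50 nM ULight-4E-BP1 (Thr37/46) peptide, and was stopped with EDTA.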

[4] = molecular target: CDK1/CCNB1 (Homo sapiens, UniProt P06493); experiment: CDK1 homogeneous time-resolved fluorescence (HTRF) kinase assay; conditions: CDK1/CCNB
Sequence of CDK1/CCNB1 (P06493 whole entry): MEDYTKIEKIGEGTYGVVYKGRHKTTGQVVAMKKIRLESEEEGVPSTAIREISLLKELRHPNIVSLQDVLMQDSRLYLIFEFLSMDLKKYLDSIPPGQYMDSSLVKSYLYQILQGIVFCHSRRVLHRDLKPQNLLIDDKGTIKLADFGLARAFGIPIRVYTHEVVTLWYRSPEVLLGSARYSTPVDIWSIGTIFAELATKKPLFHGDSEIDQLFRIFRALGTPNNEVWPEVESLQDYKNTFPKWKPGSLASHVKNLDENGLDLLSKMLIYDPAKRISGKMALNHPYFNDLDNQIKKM
Sequence of CDK1/CCNB1 (P14635 whole entry partner): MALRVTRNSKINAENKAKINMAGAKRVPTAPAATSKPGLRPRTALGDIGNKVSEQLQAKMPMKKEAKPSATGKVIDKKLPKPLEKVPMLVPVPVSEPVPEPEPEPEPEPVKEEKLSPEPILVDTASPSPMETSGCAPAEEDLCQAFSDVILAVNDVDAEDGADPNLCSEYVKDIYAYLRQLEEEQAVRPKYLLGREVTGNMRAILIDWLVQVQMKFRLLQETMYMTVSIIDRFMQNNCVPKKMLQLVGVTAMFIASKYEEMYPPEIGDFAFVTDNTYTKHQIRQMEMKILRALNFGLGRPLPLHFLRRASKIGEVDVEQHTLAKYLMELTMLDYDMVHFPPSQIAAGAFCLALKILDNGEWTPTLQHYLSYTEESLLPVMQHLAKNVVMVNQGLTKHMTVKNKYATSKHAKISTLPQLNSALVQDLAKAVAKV
Procedure, shortened: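 Read-out: TR-FRET (Eu anti-phospho-4E-BP1 Thr37/46 antibody, 2 nM; 665 nm or 665/615 ratio) after 60 min phosphorylation of 50 nM ULight-peptide by 0.5 nM CDK1/CCNB1 at 1 mM ATP, 23 °C. Compound preincubated 20 min with enzyme; 1% DMSO.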

[5] = 25-250 nM marked x, read-out: CDK2/CCNE IC50 25-250 nM
[6] = 25-250 nM marked x, read-out: CDK4/CCND IC50 25-250 nM
[7] = 25-250 nM marked x, read-out: CDK6/CCND IC50 25-250 nM
[8] = >250 nM marked x, read-out: CDK1/CCNB IC50 >250 nM
[9] = <25 nM, read-out: CDK6/CCND IC50 <25 nM
[10] = <25 nM, read-out: CDK2/CCNE IC50 <25 nM
[11] = 25-250 nM marked x, read-out: CDK1/CCNB IC50 25-250 nM
[12] = <25 nM, read-out: CDK4/CCND IC50 <25 nM
[13] = >250 nM marked x, read-out: CDK4/CCND IC50 >250 nM
[14] = >250 nM marked x, read-out: CDK6/CCND IC50 >250 nM
[15] = x = IC50 <25 nM, read-out: CDK2/CCNE IC50 (<25 nM)
[16] = x = IC50 >250 nM, read-out: CDK4/CCND IC50 (>250 nM column)
[17] = x = IC50 >250 nM, read-out: CDK6/CCND IC50 (>250 nM column)
[18] = x = IC50 25-250 nM, read-out: CDK1/CCNB IC50 (25-250 nM)
[19] = x = IC50 >250 nM, read-out: CDK1/CCNB IC50 (>250 nM column)

| Structure (SMILES) | IC50 [3, 9] [nM] | IC50 [1, 10] [nM] | IC50 [4, 11] [nM] | IC50 [1, 15] [nM] | IC50 [2, 16] [nM] | IC50 [3, 17] [nM] | further results |
| --- | --- | --- | --- | --- | --- | --- | --- |
| CS(=O)(=O)N1CCC(Nc2cc3c(N4CCC(O)CC4)nccc3cn2)CC1 [Example 1, 1-(7-((1-(methylsulfonyl)piperidin-4-yl)amino)-2,6-naphthyridin-1-yl)piperidin-4-ol] | – | – | – | – | – | – | IC50 [1, 5]: 25 to 250 nM; IC50 [2, 6]: 25 to 250 nM; IC50 [3, 7]: 25 to 250 nM; IC50 [4, 8]: > 250 nM |
| CC#Cc1nccc2cnc(Nc3ccc(S(C)(=O)=O)cc3)cc12 [Example 7, N-(4-(methylsulfonyl)phenyl)-5-(prop-1-yn-1-yl)-2,6-naphthyridin-3-amine] | – | < 25 | – | – | – | – | IC50 [2, 13]: > 250 nM; IC50 [3, 14]: > 250 nM; IC50 [4, 8]: > 250 nM |
| C=CS(=O)(=O)c1ccc(Nc2cc3c(N4CCC(C#N)CC4)nccc3cn2)cc1 [Example 15, 1-(7-((4-(vinylsulfonyl)phenyl)amino)-2,6-naphthyridin-1-yl)piperidine-4-carbonitrile] | – | – | – | – | – | – | IC50 [1, 5]: 25 to 250 nM; IC50 [2, 13]: > 250 nM; IC50 [3, 14]: > 250 nM; IC50 [4, 8]: > 250 nM |
| COCC1(COC)C(=O)Nc2cc(C#Cc3nccc4cnc(Nc5ccc(S(C)(=O)=O)cc5)cc34)ccc21 [Example 360, 3,3-bis(methoxymethyl)-6-((7-((4-(methylsulfonyl)phenyl)amino)-2,6-naphthyridin-1-yl)ethynyl)indolin-2-one] | – | – | – | < 25 | > 250 | > 250 | IC50 [4, 18]: 25 to 250 nM |
| CC1(C)C(=O)Nc2nc(C#Cc3nccc4cnc(Nc5ccc(S(C)(=O)=O)cc5)cc34)ccc21 [Example 374, 3,3-dimethyl-6-((7-((4-(methylsulfonyl)phenyl)amino)-2,6-naphthyridin-1-yl)ethynyl)-1,3-dihydro-2H-pyrrolo[2,3-b]pyridin-2-one] | – | – | – | < 25 | > 250 | > 250 | IC50 [4, 18]: 25 to 250 nM |
| CS(=O)(=O)c1ccc(Nc2cc3c(C#Cc4cc5c(cc4F)C4(CC4)C(=O)N5)nccc3cn2)cc1 [Example 378, 5′-fluoro-6′-((7-((4-(methylsulfonyl)phenyl)amino)-2,6-naphthyridin-1-yl)ethynyl)spiro[cyclopropane-1,3′-indolin]-2′-one] | – | – | – | < 25 | > 250 | > 250 | IC50 [4, 19]: > 250 nM |
| CCC1(CC)C(=O)Nc2cc(C#Cc3nccc4cnc(Nc5ccc(S(C)(=O)=O)cc5C)cc34)ccc21 [Example 395, 3,3-diethyl-6-((7-((2-methyl-4-(methylsulfonyl)phenyl)amino)-2,6-naphthyridin-1-yl)ethynyl)indolin-2-one] | – | – | – | < 25 | > 250 | > 250 | IC50 [4, 19]: > 250 nM |
| Nc1ncccc1C#Cc1nccc2cnc(Nc3ccc(S(=O)(=O)C4CCC4)cc3)cc12 [Example 398, 5-((2-aminopyridin-3-yl)ethynyl)-N-(4-(cyclobutylsulfonyl)phenyl)-2,6-naphthyridin-3-amine] | – | – | – | – | > 250 | > 250 | IC50 ([1]; x = IC50 25-250 nM, read-out: CDK2/CCNE IC50 (25-250 nM)): 25 to 250 nM; IC50 [4, 19]: > 250 nM |
| Cc1cc(Nc2cc3c(C#Cc4ccc5c(c4)NC(=O)C5(C)C)nccc3cn2)ccc1S(C)(=O)=O [Example 406, 3,3-dimethyl-6-((7-((3-methyl-4-(methylsulfonyl)phenyl)amino)-2,6-naphthyridin-1-yl)ethynyl)indolin-2-one] | – | – | – | < 25 | > 250 | > 250 | IC50 [4, 19]: > 250 nM |
| CC(C)NS(=O)(=O)c1ccc(Nc2cc3c(C#Cc4cccnc4N)nccc3cn2)cc1 [Example 421, 4-((5-((2-aminopyridin-3-yl)ethynyl)-2,6-naphthyridin-3-yl)amino)-N-isopropylbenzenesulfonamide] | – | – | – | < 25 | > 250 | > 250 | IC50 [4, 19]: > 250 nM |
| CC1(C)C(=O)Nc2cc(C#Cc3nccc4cnc(Nc5ccc(S(C)(=O)=O)cc5)cc34)cnc21 [Example 436, 3,3-dimethyl-6-((7-((4-(methylsulfonyl)phenyl)amino)-2,6-naphthyridin-1-yl)ethynyl)-1,3-dihydro-2H-pyrrolo[3,2-b]pyridin-2-one] | – | – | – | < 25 | > 250 | > 250 | IC50 [4, 19]: > 250 nM |

Continued, in another order:

| IC50 [3, 9] [nM] | IC50 [1, 10] [nM] | IC50 [4, 11] [nM] | IC50 [1, 15] [nM] | IC50 [2, 16] [nM] | IC50 [3, 17] [nM] | Structure (SMILES) | further results |
| --- | --- | --- | --- | --- | --- | --- | --- |
| < 25 | – | – | – | – | – | CS(=O)(=O)N1CCC(Nc2cc3c(N4CCCC4)nccc3cn2)CC1 [Example 2, N-(1-(methylsulfonyl)piperidin-4-yl)-5-(pyrrolidin-1-yl)-2,6-naphthyridin-3-amine] | IC50 [1, 5]: 25 to 250 nM; IC50 [2, 6]: 25 to 250 nM; IC50 [4, 8]: > 250 nM |
| – | < 25 | 25 to 250 | – | – | – | C=CS(=O)(=O)N1CCC(Nc2cc3c(N4CCCCC4)nccc3cn2)CC1 [Example 3, 5-(piperidin-1-yl)-N-(1-(vinylsulfonyl)piperidin-4-yl)-2,6-naphthyridin-3-amine] | IC50 [2, 6]: 25 to 250 nM; IC50 [3, 7]: 25 to 250 nM |
| – | < 25 | 25 to 250 | – | – | – | CC(C)c1nccc2cnc(NC3CCN(S(C)(=O)=O)CC3)cc12 [Example 6, 5-isopropyl-N-(1-(methylsulfonyl)piperidin-4-yl)-2,6-naphthyridin-3-amine] | IC50 [2, 12]: < 25 nM; IC50 [3, 7]: 25 to 250 nM |
| < 25 | – | 25 to 250 | – | – | – | CS(=O)(=O)N1CCC(Nc2cc3c(OCc4ccccc4)nccc3cn2)CC1 [Example 11, 5-(benzyloxy)-N-(1-(methylsulfonyl)piperidin-4-yl)-2,6-naphthyridin-3-amine] | IC50 [1, 5]: 25 to 250 nM; IC50 [2, 12]: < 25 nM |
| < 25 | < 25 | 25 to 250 | – | – | – | CS(=O)(=O)N1CCC(Nc2cc3c(N4CCCCC4)nc(C=O)cc3cn2)CC1 [Example 18, 7-((1-(methylsulfonyl)piperidin-4-yl)amino)-1-(piperidin-1-yl)-2,6-naphthyridine-3-carbaldehyde] | IC50 [2, 12]: < 25 nM |
| < 25 | < 25 | 25 to 250 | – | – | – | C=CS(=O)(=O)N1CCC(Nc2cc3c(C4=CCCCC4)nccc3cn2)CC1 [Example 20, 5-(cyclohex-1-en-1-yl)-N-(1-(vinylsulfonyl)piperidin-4-yl)-2,6-naphthyridin-3-amine] | IC50 [2, 12]: < 25 nM |
| < 25 | < 25 | 25 to 250 | – | – | – | CS(=O)(=O)N1CCC(Nc2cc3c(C4CCCCC4)nccc3cn2)CC1 [Example 21, 5-cyclohexyl-N-(1-(methylsulfonyl)piperidin-4-yl)-2,6-naphthyridin-3-amine] | IC50 [2, 12]: < 25 nM |
| < 25 | < 25 | – | – | – | – | CS(=O)(=O)N1CCC(Nc2cc3c(C4CCCC4)nccc3cn2)CC1 [Example 22, 5-cyclopentyl-N-(1-(methylsulfonyl)piperidin-4-yl)-2,6-naphthyridin-3-amine] | IC50 [2, 12]: < 25 nM; IC50 ([4]; <25 nM, read-out: CDK1/CCNB IC50 <25 nM): < 25 nM |
| – | < 25 | 25 to 250 | – | – | – | CS(=O)(=O)c1ccc(Nc2cc3c(C4CCCC4)nccc3cn2)cc1 [Example 23, 5-cyclopentyl-N-(4-(methylsulfonyl)phenyl)-2,6-naphthyridin-3-amine] | IC50 [2, 6]: 25 to 250 nM; IC50 [3, 7]: 25 to 250 nM |
| < 25 | < 25 | – | – | – | – | C=CS(=O)(=O)N1CCC(Nc2cc3c(-c4cccc(C#N)c4)nccc3cn2)CC1 [Example 24, 3-(7-((1-(vinylsulfonyl)piperidin-4-yl)amino)-2,6-naphthyridin-1-yl)benzonitrile] | IC50 [2, 6]: 25 to 250 nM; IC50 [4, 8]: > 250 nM |
